Activity calls are given as the source filed them. The calls are words filed in the database; no cut-off is given here.
Tests used:
[1] = test system: HepG2; experiment: Cytotoxicity against human HepG2 cells assessed as reduction in cell viability up to 100 uM by CCK8 assay; assay type: functional, cell-based
[2] = species on record: Homo sapiens; experiment: (§1) Cytotoxicity against human IHKE cells assessed as reduction in cell viability by CCK8 assay; assay type: functional, cell-based
[3] = test system: HepG2; experiment: Cytotoxicity against human HepG2 cells assessed as reduction in cell viability by CCK8 assay relative to control; assay type: functional, cell-based
[4] = test system: HepG2; experiment: Cytotoxicity against human HepG2 cells assessed as reduction in cell viability at 100 uM by CCK8 assay relative to control; assay type: functional
[5] = as §1; assay type: functional, cell-based
[6] = species on record: Homo sapiens; experiment: Cytotoxicity against human IHKE cells assessed as reduction in cell viability up to 100 uM by CCK8 assay; assay type: functional, cell-based

Row | Compound | Activity [1] | Activity [2] | Activity [3] | Activity [4] | IC50 [5] [µM] | Activity [6]
1 | CN1C(=O)c2ccccc2N2C(=O)c3ccccc3N[C@@H]2[C@@H]1CCC#N | inactive | Dose-dependent effect |  |  |  | 
2 | C=CC(C)(C)c1[nH]cnc1/C=C1\NC(=O)[C@H](C(C)C)NC1=O |  |  | Dose-dependent effect | <=56% | 25 | 
3 | N#CCC[C@@H]1NC(=O)c2ccccc2N2C(=O)c3ccccc3N[C@H]12 | inactive |  |  |  |  | inactive
4 | N#CCC[C@@H]1NC(=O)c2ccccc2-n2c1nc1ccccc1c2=O | inactive |  |  |  |  | inactive

Reference: ChEMBL document CHEMBL4196241, “Auranthine, a Benzodiazepinone from Penicillium aurantiogriseum: Refined Structure, Absolute Configuration, and Cytotoxicity” (J Nat Prod, 2018)
